{"source": "patent US20250170114A1", "about": "“METHODS OF TREATMENT USING T-TYPE CALCIUM CHANNEL MODULATORS” (Praxis Precision Medicines, Inc., priority 2022, published 2025)", "test_system": "participants with ET", "test": "Phase 2 trial: treatment-emergent adverse events (TEAEs)", "type": "in vivo", "settings": "for SOC Nervous System Disorders / SOC Psychiatric Disorders / SOC Vascular Disorders / Any TEAE / PT Cognitive disorder / PT Constipation / PT Dizziness / PT Fatigue / PT Insomnia / SOC Gastrointestinal Disorders / SOC General Disorders and Administration Site Conditions / SOC Musculoskeletal and Connective Tissue Disorders: Part B", "from_the_text": "Part A of the clinical trial was open-label and assessed the safety and tolerability of the study drug, as well as the overall magnitude and pattern of change in ET severity.\nPart B of the clinical trial consisted of both an open-label titration phase and a randomized, double-blind, placebo-controlled withdrawal phase. Part B assessed the safety and tolerability of the study drug, as well as the overall magnitude and pattern of change in ET severity and the duration of that effect. […] In the randomized, double-blind, placebo-controlled withdrawal phase, participants were either maintained on their final open-label dose or switched to placebo for an additional 14 days (Days 43 to 56).\nKey safety measures included clinical laboratory evaluations, 12-lead ECG, C-SSRS, and vital signs. Key efficacy assessments included the TETRAS Performance subscale, TETRAS Upper Limb using accelerometry, CGI, and PGI-C. Blood samples were obtained for the determination of study drug plasma concentrations using a validated bioanalytical method and may also be used for method development and/or metabolite characterization.\nOn Day 1, participants received a 20 mg dose of study drug on an empty stomach (at least 1 hour before breakfast). Participants remained in a clinical setting under medical observation for approximately 6 hours. TETRAS Performance assessments were performed before dosing and 6 hours (±2) post-dose. For dosing on Day 2 through Day 41, participants were instructed to dose QAM at least 1 hour before breakfast at home. Participants continued taking study drug 20 mg QAM at home through Day 3. […] On Day 4, participants escalated to 40 mg QAM through Day 7, when they returned to the clinic for safety assessments and efficacy testing. On Day 8, participants escalated to 60 mg QAM through Day 14. […] On Day 15, participants escalated to 80 mg QAM through Day 21, when they returned to the clinic for safety assessments and efficacy testing. On Day 22, participants escalated to 100 mg QAM through Day 28. […] On Day 29, participants escalated to 120 mg QAM through Day 42, when they returned to the clinic for safety assessments and efficacy testing. The dose on Day 42 was taken in the clinic. On Day 35, participants received a telephone call from site staff to inquire about AEs and concomitant medications. On Day 41, participants completed a TETRAS Performance Upper Limb assessment via a telehealth visit. […] Participants could only change to a lower dose level once, and no dose changes were allowed to occur after Day 36.\nIn both phases, key safety measures included clinical laboratory evaluations, 12-lead ECG, C-SSRS, and vital signs. Key efficacy assessments included the TETRAS Performance subscale, TETRAS Upper Limb using accelerometry, CGI, PGI-C, TETRAS ADL Subscale, QUEST, BDI-II, and BAI. Blood samples were obtained for the determination of study drug and metabolite plasma concentrations.", "key": {"[1]": {"settings": "open-label titration phase of Part B"}, "[2]": {"settings": "randomized-withdrawal phase of Part B, participants receiving study drug"}}, "data": [{"compound": "CC(C)(C)NC(=O)CN1CCC(CNC(=O)c2cc(F)cc(Cl)c2)CC1.Cl", "note": "[Study drug]", "values": [{"measurement": "SOC Nervous System Disorders", "setting": "40 mg, N = 15", "result": "4 n (%)"}, {"measurement": "SOC Psychiatric Disorders", "setting": "40 mg, N = 15", "result": "2 n (%)"}, {"measurement": "SOC Vascular Disorders", "setting": "40 mg, N = 15", "result": "0 n (%)"}, {"measurement": "Any TEAE", "setting": "60 mg, N = 12", "result": "8 n (%)"}, {"measurement": "PT Cognitive disorder", "setting": "60 mg, N = 12", "result": "1 n (%)"}, {"measurement": "PT Constipation", "setting": "60 mg, N = 12", "result": "0 n (%)"}, {"measurement": "PT Dizziness", "setting": "60 mg, N = 12", "result": "2 n (%)"}, {"measurement": "PT Fatigue", "setting": "60 mg, N = 12", "result": "2 n (%)"}, {"measurement": "PT Insomnia", "setting": "60 mg, N = 12", "result": "0 n (%)"}, {"measurement": "SOC Gastrointestinal Disorders", "setting": "60 mg, N = 12", "result": "0 n (%)"}, {"measurement": "SOC General Disorders and Administration Site Conditions", "setting": "60 mg, N = 12", "result": "3 n (%)"}, {"measurement": "SOC Musculoskeletal and Connective Tissue Disorders", "setting": "60 mg, N = 12", "result": "2 n (%)"}, {"measurement": "SOC Nervous System Disorders", "setting": "60 mg, N = 12", "result": "8 n (%)"}, {"measurement": "SOC Psychiatric Disorders", "setting": "60 mg, N = 12", "result": "1 n (%)"}, {"measurement": "SOC Vascular Disorders", "setting": "60 mg, N = 12", "result": "2 n (%)"}, {"measurement": "Any TEAE", "setting": "80 mg, N = 10", "result": "4 (40.0) n (%)"}, {"measurement": "PT Cognitive disorder", "setting": "80 mg, N = 10", "result": "0 n (%)"}, {"measurement": "PT Constipation", "setting": "80 mg, N = 10", "result": "1 (10.0) n (%)"}, {"measurement": "PT Dizziness", "setting": "80 mg, N = 10", "result": "0 n (%)"}, {"measurement": "PT Fatigue", "setting": "80 mg, N = 10", "result": "0 n (%)"}, {"measurement": "PT Insomnia", "setting": "80 mg, N = 10", "result": "0 n (%)"}, {"measurement": "SOC Gastrointestinal Disorders", "setting": "80 mg, N = 10", "result": "2 (20.0) n (%)"}, {"measurement": "SOC General Disorders and Administration Site Conditions", "setting": "80 mg, N = 10", "result": "0 n (%)"}, {"measurement": "SOC Musculoskeletal and Connective Tissue Disorders", "setting": "80 mg, N = 10", "result": "0 n (%)"}, {"measurement": "SOC Nervous System Disorders", "setting": "80 mg, N = 10", "result": "2 (20.0) n (%)"}, {"measurement": "SOC Psychiatric Disorders", "setting": "80 mg, N = 10", "result": "0 n (%)"}, {"measurement": "SOC Vascular Disorders", "setting": "80 mg, N = 10", "result": "0 n (%)"}, {"measurement": "Any TEAE", "setting": "100 mg, N = 9", "result": "1 (11.1) n (%)"}, {"measurement": "PT Cognitive disorder", "setting": "100 mg, N = 9", "result": "0 n (%)"}, {"measurement": "PT Constipation", "setting": "100 mg, N = 9", "result": "1 (11.1) n (%)"}, {"measurement": "PT Dizziness", "setting": "100 mg, N = 9", "result": "0 n (%)"}, {"measurement": "PT Fatigue", "setting": "100 mg, N = 9", "result": "0 n (%)"}, {"measurement": "PT Insomnia", "setting": "100 mg, N = 9", "result": "0 n (%)"}, {"measurement": "SOC Gastrointestinal Disorders", "setting": "100 mg, N = 9", "result": "1 (11.1) n (%)"}, {"measurement": "SOC General Disorders and Administration Site Conditions", "setting": "100 mg, N = 9", "result": "0 n (%)"}, {"measurement": "SOC Musculoskeletal and Connective Tissue Disorders", "setting": "100 mg, N = 9", "result": "0 n (%)"}, {"measurement": "SOC Nervous System Disorders", "setting": "100 mg, N = 9", "result": "0 n (%)"}, {"measurement": "SOC Psychiatric Disorders", "setting": "100 mg, N = 9", "result": "0 n (%)"}, {"measurement": "SOC Vascular Disorders", "setting": "100 mg, N = 9", "result": "0 n (%)"}, {"measurement": "Any TEAE", "setting": "120 mg, N = 9", "result": "3 (33.3) n (%)"}, {"measurement": "PT Cognitive disorder", "setting": "120 mg, N = 9", "result": "0 n (%)"}, {"measurement": "PT Constipation", "setting": "120 mg, N = 9", "result": "1 (11.1) n (%)"}, {"measurement": "PT Dizziness", "setting": "120 mg, N = 9", "result": "0 n (%)"}, {"measurement": "PT Fatigue", "setting": "120 mg, N = 9", "result": "0 n (%)"}, {"measurement": "PT Insomnia", "setting": "120 mg, N = 9", "result": "0 n (%)"}, {"measurement": "SOC Gastrointestinal Disorders", "setting": "120 mg, N = 9", "result": "1 (11.1) n (%)"}, {"measurement": "SOC General Disorders and Administration Site Conditions", "setting": "120 mg, N = 9", "result": "0 n (%)"}, {"measurement": "SOC Musculoskeletal and Connective Tissue Disorders", "setting": "120 mg, N = 9", "result": "0 n (%)"}, {"measurement": "SOC Nervous System Disorders", "setting": "120 mg, N = 9", "result": "1 (11.1) n (%)"}, {"measurement": "SOC Psychiatric Disorders", "setting": "120 mg, N = 9", "result": "1 (11.1) n (%)"}, {"measurement": "SOC Vascular Disorders", "setting": "120 mg, N = 9", "result": "0 n (%)"}, {"measurement": "Any TEAE", "setting": "Overall, N = 17", "result": "15 n (%)"}, {"measurement": "PT Cognitive disorder", "setting": "Overall, N = 17", "result": "4 n (%)"}, {"measurement": "PT Constipation", "setting": "Overall, N = 17", "result": "6 n (%)"}, {"measurement": "PT Dizziness", "setting": "Overall, N = 17", "result": "6 n (%)"}, {"measurement": "PT Fatigue", "setting": "Overall, N = 17", "result": "3 n (%)"}, {"measurement": "PT Insomnia", "setting": "Overall, N = 17", "result": "3 n (%)"}, {"measurement": "SOC Gastrointestinal Disorders", "setting": "Overall, N = 17", "result": "8 n (%)"}, {"measurement": "SOC General Disorders and Administration Site Conditions", "setting": "Overall, N = 17", "result": "5 n (%)"}, {"measurement": "SOC Musculoskeletal and Connective Tissue Disorders", "setting": "Overall, N = 17", "result": "3 n (%)"}, {"measurement": "SOC Nervous System Disorders", "setting": "Overall, N = 17", "result": "12 n (%)"}, {"measurement": "SOC Psychiatric Disorders", "setting": "Overall, N = 17", "result": "4 n (%)"}, {"measurement": "SOC Vascular Disorders", "setting": "Overall, N = 17", "result": "2 n (%)"}, {"measurement": "severity of treatment emergent adverse events (TEAEs)", "setting": "Phase 2 trial overall", "result": "mild to moderate"}, {"measurement": "discontinuation of participants during the titration period", "setting": "accelerated titration regimen", "result": "a third"}, {"measurement": "overall safety and tolerability", "setting": "doses up to 120 mg", "result": "generally safe and well tolerated"}, {"measurement": "Drug-related TEAE cognitive disorder", "setting": "[1]", "result": 4, "unit": "participants"}, {"measurement": "Drug-related TEAE dizziness", "setting": "[1]", "result": 6, "unit": "participants"}, {"measurement": "Drug-related TEAE paraesthesia", "setting": "[1]", "result": 2, "unit": "participants"}, {"measurement": "participants experiencing TEAEs considered related to study drug", "setting": "[1]", "result": 70.6, "unit": "%"}, {"measurement": "participants who experienced at least 1 TEAE", "setting": "[1]", "result": 88.2, "unit": "%"}, {"measurement": "serious adverse event (SAE) experienced", "setting": "open-label titration phase of Part B, considered unrelated to study drug", "result": "One mild SAE of cyst"}, {"measurement": "participants who experienced TEAEs", "setting": "randomized withdrawal phase of Part B, study drug group", "result": 16.7, "unit": "%"}, {"measurement": "ongoing AE constipation that had emerged during open-label titration", "setting": "[2]", "result": 3, "unit": "participants"}, {"measurement": "ongoing AE photosensitivity/photophobia that had emerged during open-label titration", "setting": "[2]", "result": 2, "unit": "participants"}]}]}
